For 18 compounds, IC50 results are on record in US20250059220A1, “SUBSTITUTED BENZOTHIOPHENE DERIVATIVES AND METHODS OF USE THEREOF” (Merck Sharp & Dohme LLC, priority 2021, published 2025).

The structures appear in SMILES notation.

One experiment has as its target human PTPN2 (1-387) (Homo sapiens (Human), UniProt P17706). The experiment in a line: Human PTPN2 Biochemical Assay. To be noted: DiFMUP substrate. An outline of the steps: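 Fluorogenic DiFMUP hydrolysis (1 h, room temperature, read ex 360/em 460 nm) after 30 min compound preincubation with PTPN2 residues 1-387, in 50 mM Tris pH 7.4, 150 mM NaCl, 0.01% Tween20, 0.5 mM DTT. Effects scaled between buffer and enzyme controls, 4-parameter fit gives EC50.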

A further experiment addresses human PTPN1 (1-435) (Homo sapiens (Human), UniProt P18031). The experiment in a line: Human PTPN1 Biochemical Assay. The following applies: DiFMUP substrate, read-out: PTP1B IC50. An outline of the steps:
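Read-out is DiFMUP hydrolysis fluorescence (360 nm excitation, 460 nm emission) after 1 h at room temperature, following 30 min enzyme–compound preincubation.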

human PTPN1 (1-435), sequence (P18031 whole entry): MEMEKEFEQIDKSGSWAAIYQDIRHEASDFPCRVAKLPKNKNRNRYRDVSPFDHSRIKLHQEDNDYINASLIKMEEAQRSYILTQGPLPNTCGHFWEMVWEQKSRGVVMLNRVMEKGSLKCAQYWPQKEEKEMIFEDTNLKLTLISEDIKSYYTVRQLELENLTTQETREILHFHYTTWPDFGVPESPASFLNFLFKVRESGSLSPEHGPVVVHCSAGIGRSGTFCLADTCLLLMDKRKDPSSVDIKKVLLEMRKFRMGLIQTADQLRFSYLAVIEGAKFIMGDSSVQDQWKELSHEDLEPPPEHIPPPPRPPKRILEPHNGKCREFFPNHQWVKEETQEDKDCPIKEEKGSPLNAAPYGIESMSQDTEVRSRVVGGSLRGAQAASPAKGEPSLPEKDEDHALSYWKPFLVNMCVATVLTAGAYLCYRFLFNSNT
human PTPN2 (1-387), sequence (P17706 other isoform, or with tags, fused parts or gaps): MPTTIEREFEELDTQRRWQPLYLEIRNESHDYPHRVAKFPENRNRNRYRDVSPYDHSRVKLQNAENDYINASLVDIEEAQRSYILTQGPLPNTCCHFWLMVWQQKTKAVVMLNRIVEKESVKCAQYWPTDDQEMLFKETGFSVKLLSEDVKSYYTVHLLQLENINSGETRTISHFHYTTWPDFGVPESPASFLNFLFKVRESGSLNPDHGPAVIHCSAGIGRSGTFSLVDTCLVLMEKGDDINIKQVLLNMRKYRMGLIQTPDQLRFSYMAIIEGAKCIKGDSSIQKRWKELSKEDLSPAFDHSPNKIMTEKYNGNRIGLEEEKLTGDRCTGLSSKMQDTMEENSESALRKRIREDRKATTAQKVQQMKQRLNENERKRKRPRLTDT

On to `CC1(C)CC(COc2cc(C(N)=O)cc3c(Br)c(C(F)(F)P(=O)(O)O)sc23)C1` [Compound 292], for which the IC50 against human PTPN2 (1-387) came out at 78.6 nM; at human PTPN1 (1-435), 49 nM.
For the compound `NC(=O)c1cc(OCCC23CC(C2)C3)c2sc(C(F)(F)P(=O)(O)O)c(Br)c2c1` [Compound 293], the IC50 against human PTPN2 (1-387) worked out at 619 nM; at human PTPN1 (1-435), 246 nM.
For `NC(=O)c1cc(OCC2C(F)(F)C23CCC3)c2sc(C(F)(F)P(=O)(O)O)c(Br)c2c1` (stereo not drawn) [Compound 294], the IC50 on human PTPN2 (1-387) was 80.7 nM; at human PTPN1 (1-435) it was 38 nM.
For `NC(=O)c1cc(OCC2CC(C3CC3)C2)c2sc(C(F)(F)P(=O)(O)O)c(Br)c2c1` (stereo not drawn) [Compound 295], in that order: 38.9 nM and 38 nM.
The like results for `N#Cc1ccc2cc(C(F)(F)P(=O)(O)O)sc2c1Br` [Compound 297, ((7-bromo-6-cyanobenzo[b]thiophen-2-yl)difluoromethyl)phosphonic acid] were, in that order, 26500 nM and 7350 nM.
The like results for `O=P(O)(O)C(F)(F)c1sc2cc(Br)ccc2c1Br` [Compound 298, ((3,6-dibromobenzo[b]thiophen-2-yl)difluoromethyl)phosphonic acid] were, in that order, 21600 nM and 11700 nM.
Consider `N#Cc1ccc2c(Br)c(C(F)(F)P(=O)(O)O)sc2c1` [Compound 299, ((3-bromo-6-cyanobenzo[b]thiophen-2-yl)difluoromethyl)phosphonic acid], for which the results for the IC50 against human PTPN2 (1-387) and on human PTPN1 (1-435) were 17100 nM and 8980 nM, respectively.
For `NC(=O)c1ccc2c(Br)c(C(F)(F)P(=O)(O)O)sc2c1` [Compound 300, ((3-bromo-6-carbamoylbenzo[b]thiophen-2-yl)difluoromethyl)phosphonic acid], in that order: 16900 nM and 7330 nM.
The like results for `N#Cc1ccc2c(C#N)c(C(F)(F)P(=O)(O)O)sc2c1` [Compound 301, ((3,6-dicyanobenzo[b]thiophen-2-yl)difluoromethyl)phosphonic acid] were, in that order, 17000 nM and 12900 nM.
For `CC(C)(O)CCOc1ccc2c(Br)c(C(F)(F)P(=O)(O)O)sc2c1` [Compound 302, ((3-bromo-6-(3-hydroxy-3-methylbutoxy)benzo[b]thiophen-2-yl)difluoromethyl)phosphonic acid], in that order: 43700 nM and 37900 nM.
Regarding `O=C(Nc1ccc2c(Br)c(C(F)(F)P(=O)(O)O)sc2c1)c1ccccc1` [Compound 303, ((6-benzamido-3-bromobenzo[b]thiophen-2-yl)difluoromethyl)phosphonic acid], the IC50 against human PTPN2 (1-387) came out at 24700 nM; at human PTPN1 (1-435), 2690 nM.
The like results for `[2H]C([2H])([2H])NC(=O)c1cc(OCCCS(C)(=O)=O)c2sc(C(F)(F)P(=O)(O)O)c(Br)c2c1` [Compound 304] were, in that order, 8.9 nM and 9.8 nM.
As to `CCNC(=O)c1cc(OCCCS(C)(=O)=O)c2sc(C(F)(F)P(=O)(O)O)c(Br)c2c1` [Compound 305], the IC50 is 7.6 nM on human PTPN2 (1-387) and 8.6 nM on human PTPN1 (1-435).
For `CC(C)(O)CCCOc1cc(C(N)=O)cc2c(Br)c(C(F)(F)P(=O)(O)O)sc12` [Compound 306], in that order: 16.4 nM and 25.7 nM.
For `CC(C)=CCCOc1cc(C(N)=O)cc2c(Br)c(C(F)(F)P(=O)(O)O)sc12` [Compound 307], in that order: 65 nM and 57.5 nM.
For `NC(=O)c1cc(OCCCCS(N)(=O)=O)c2sc(C(F)(F)P(=O)(O)O)c(Br)c2c1` [Compound 308], in that order: 25.2 nM and 23.4 nM.
As for `NC(=O)c1cc(C#CCCS(N)(=O)=O)c2sc(C(F)(F)P(=O)(O)O)c(Br)c2c1` [Compound 310], the IC50 against human PTPN2 (1-387) is 68.5 nM; on human PTPN1 (1-435) it was 77.7 nM.
In the case of `NC(=O)c1cc(CCCCS(N)(=O)=O)c2sc(C(F)(F)P(=O)(O)O)c(Br)c2c1` [Compound 311], the IC50 was 120 nM on human PTPN2 (1-387) and 140 nM on human PTPN1 (1-435).

By IC50 is commonly meant the midpoint of a concentration-inhibition curve.
